Data on 19 compounds can be found in patent US20210009575A1, “HYDROXYISOXAZOLINES AND DERIVATIVES THEREOF” (Bayer Aktiengesellschaft, priority 2017, published 2021).

Each structure is given as a SMILES string. Where two headings read alike, the source gives them in different places.

One data set deals with Puccinia recondita. Description: In vivo preventive test on Puccinia recondita (brown rust on wheat). Conditions: 264 h, read-out: efficacy.
In data set [1] the test system is Colletotrichum lindemuthianum. The experiment in a line: Colletotrichum lindemuthianum in vitro cell test. Type of data set: cell-based. As to conditions: 144 h, read-out: efficacy.
The conditions of data set [2]: for LogP: method [a]: LC-UV, acidic range, Table 1.
Experimental: (§1) Measurement of LogP values was performed according to EEC directive 79/831 Annex V.A8 by HPLC (High Performance Liquid Chromatography) on reversed phase columns with the following methods:
(§2) [a] LogP value is determined by measurement of LC-UV, in anacidic range, with 0.1% formic acid in water and acetonitrile as eluent (linear gradient from 10% acetonitrile to 95% acetonitrile). [b] LogP value is determined by measurement of LC-UV, in a neutral range, with 0.001 molar ammonium acetate solution in water and acetonitrile as eluent (linear gradient from 10% acetonitrile to 95% acetonitrile). [c] LogP value is determined by measurement of LC-UV, in an acidic range, with 0.1% phosphoric acid and acetonitrile as eluent (linear gradient from 10% acetonitrile to 95% acetonitrile).
(§3) If more than one LogP value is available within the same method, all the values are given and separated by “+”.
The mark [3] stands for this setting: 500 ppm of active ingredient, wheat sprayed 24 hours before contamination, evaluated 11 days after the inoculation.
Where [4] appears, read: 20 ppm of active ingredient, inhibition of fungal growth, 6 days incubation, liquid culture.

Experimental for physchem: as §1, §2, §3

In the case of `CN(C(=O)c1ccc(C(=O)/C=C(\O)C(F)(F)F)cc1)c1ccccc1` [Compound 1b-01], in the data set “physchem”, the chromatographic logP (as a rule, a lipophilicity value derived from retention on a column) turned out to be 2.17. The same measure, in the same setting: the figure for `CCc1noc(-c2ccc(C(=O)/C=C(\O)C(F)(F)F)cc2)n1` [Compound 1b-02, 1-[4-(3-Ethyl-1,2,4-oxadiazol-5-yl)phenyl]-4,4,4-trifluoro-3-hydroxy-but-2-en-1-one] is 2.43; for `COC(=O)c1ccc(C(=O)CC(=O)C(F)(F)Cl)cc1` [Compound 1b-04, methyl 4-(4-chloro-4,4-difluoro-3-oxobutanoyl)benzoate] it is 2.11. Still for that read-out and setting: the figure for `Cc1ccc(C)n1-c1ccc(C(=O)CC(=O)C(F)(F)F)cc1` [Compound 1b-35, 1-[4-(2,5-dimethyl-1H-pyrrol-1-yl)phenyl]-4,4,4-trifluoro-1,3-butanedione] is 3.21.

On to `OC1(C(F)(F)F)CC(c2ccc(C#CC3CC3)cc2)=NO1` (stereo not shown) [Ia-031, 3-[4-(cvclopropvlethvnvl)phenyl]-5-(trifluoromethyl)-4,5-dihydro-1,2-oxazol-5-ol], for which the pest or weed control at 500 ppm in the data set on Puccinia recondita (setting [3]) lay within 80 to 89%. Moreover, the inhibition of growth at 20 ppm in data set [1] (setting [4]) fell in the range of 90 to 100%. This compound registered a chromatographic logP in “physchem” of 3.41.

In the case of `CON=C(C)c1ccc(C2=NOC(O)(C(F)(F)F)C2)cc1` (stereo not shown) [Ia-037, 3-[4-(N-methoxvethanimidovl)phenyl]-5-(trifluoromethyl)-4,5-dihydro-1,2-oxazol-5-ol], the inhibition of growth at 20 ppm in data set [1] (setting [4]) lay within 90 to 100%. For the same compound, in the data set “physchem”, the chromatographic logP was determined as 2.98. As to `CC(=O)c1ccc(C2=NOC(O)(C(F)(F)F)C2)cc1` (stereo not shown) [Ia-038, 1-{4-[5-hydroxy-5-(trifluoromethyl)-4,5-dihydro-1,2-oxazol-3-yl]phenyl}ethanone], the pest or weed control at 500 ppm with Puccinia recondita (setting [3]) fell in the range of 90 to 100%. In addition, the inhibition of growth at 20 ppm in data set [1] (setting [4]) lay within 90 to 100%. Moreover, the chromatographic logP in the data set “physchem” stood at 2.11. Take `CC(O)c1ccc(C2=NOC(O)(C(F)(F)F)C2)cc1` (stereo not shown) [Ia-044, 3-[4-(1-hydroxyethyl)phenyl]-5-(trifluoromethyl)-4,5-dihydro-1,2-oxazol-5-ol]: the pest or weed control at 500 ppm in the data set on Puccinia recondita (setting [3]) lay in the range of 90 to 100%. Also, the inhibition of growth at 20 ppm in data set [1] (setting [4]) lay in the range of 80 to 89%. In “physchem”, this compound registered a chromatographic logP of 1.78. In the same order, the values of `OC1(C(F)(F)F)CC(c2ccc(-c3ccc(F)cc3)cc2)=NO1` (stereo not shown) [Ia-075, 3-(4′-fluoro[biphenyl]-4-yl)-5-(trifluoromethyl)-4,5-dihydro-1,2-oxazol-5-ol] are 80 to 89%, 90 to 100% and 3.46.

`OC1(C(F)(F)F)CC(c2ccc(-c3cncnc3)cc2)=NO1` (stereo not shown) [Ia-087, 3-[4-(pyrimidin-5-yl)phenyl]-5-(trifluoromethyl)-4,5-dihydro-1,2-oxazol-5-ol]: the pest or weed control at 500 ppm in the data set with Puccinia recondita (setting [3]) was 90 to 100%. Further, the inhibition of growth at 20 ppm in data set [1] (setting [4]) was 90 to 100%. The compound also came in with a chromatographic logP in the data set “physchem” of 1.86. On to `CCc1noc(-c2ccc(C3=NOC(O)(C(F)(F)F)C3)cc2)n1` (stereo not shown) [Ia-093, 3-[4-(3-Ethyl-1,2,4-oxadiazol-5-yl)phenyl]-5-(trifluoromethyl)-4H-isoxazol-5-ol], for which the pest or weed control at 500 ppm in the data set on Puccinia recondita (setting [3]) was in the range of 90 to 100%. Also, in data set [1] (setting [4]), the inhibition of growth at 20 ppm is 90 to 100%. The same compound showed a chromatographic logP in “physchem” of 2.88. With `CCc1noc(-c2ccc(C3=NOC(OC(C)=O)(C(F)(F)F)C3)cc2)n1` (stereo not shown) [Ia-095, [3-[4-(3-Ethyl-1,2,4-oxadiazol-5-yl)phenyl]-5-(trifluoromethyl)-4H-isoxazol-5-yl]acetate], in data set [2], the LogP was 3.68^[a]. `OC1(C(F)(F)F)CC(c2ccc(-c3ccc4sccc4c3)cc2)=NO1` (stereo not shown) [Ia-108]: the LogP in data set [2] was 3.94^[a]. In the case of `NCc1ccc(C2=NOC(O)(C(F)(F)F)C2)cc1` (stereo not shown) [Ia-112, 3-(4-Aminomethyl-phenyl)-5-trifluoromethyl-4,5-dihydro-isoxazol-5-ol], the pest or weed control at 500 ppm in the data set with Puccinia recondita (setting [3]) is 90 to 100%. The chromatographic logP in the data set “physchem” is 0.63.

Regarding `Nc1ccc(C2=NOC(O)(C(F)(F)F)C2)cc1` (stereo not shown) [Ia-114, 3-(4-aminophenyl)-4,5-dihydro-5-(trifluoromethyl)-5-isoxazolol], in the data set with Puccinia recondita (setting [3]), the pest or weed control at 500 ppm was 90 to 100%. In data set [1] (setting [4]), the inhibition of growth at 20 ppm was in the range of 80 to 89%. For the same compound, the chromatographic logP in “physchem” turned out to be 1.49. In turn, `O=C(Nc1ccc(F)cc1F)c1ccc(C2=NOC(O)(C(F)(F)Cl)C2)cc1` (stereo not shown) [Ib-030, 4-{5-[chloro(difluoro)methyl]-5-hydroxy-4,5-dihydro-1,2-oxazol-3-vl}-N-(2,4-difluorophenyl)benzamide] registered a chromatographic logP in the data set “physchem” of 2.76. Still for that read-out and setting: the figure for `O=C(O)c1ccc(C2=NOC(O)(C(F)(F)Cl)C2)cc1` (stereo not shown) [Ib-048, 4-{5-[chloro(difluoro)methyl]-5-hydroxy-4,5-dihydro-1,2-oxazol-3-yl}benzoic acid] is 1.84. The same measure, in the same setting: the figure for `COC(=O)c1ccc(C2=NOC(O)(C(F)(F)Cl)C2)cc1` (stereo not shown) [Ib-049, methyl 4-{5-[chloro(difluoro)methyl]-5-hydroxy-4,5-dihydro-1,2-oxazol-3-yl}benzoate] is 2.55. Take `CN(C)C(=O)Oc1ccc(C2=NOC(O)(C(F)(F)Cl)C2)cc1` (stereo not shown) [Ib-095, 4-{5-[Chloro(difluoro)methyl]-5-hydroxy-4,5-dihydro-1,2-oxazol-3-yl}phenyl dimethylcarbamate]: in the data set with Puccinia recondita, the pest or weed control at 500 ppm lay within 90 to 100%. Besides, the inhibition of growth at 20 ppm in data set [1] lay in the range of 80 to 89%. In data set [2], this compound registered a chromatographic logP of 2.35.
